Experimental data: patent US20140213446A1, “HERBICIDAL COMPOSITIONS AND METHODS USING COMBINATIONS OF 4-AMINO-3-CHLORO-6-(4-CHLORO-2-FLUORO-3-METHOXYPHENYL)PYRIDINE-2-CARBOXYLIC ACID OR A DERIVATIVE THEREOF AND AN ARYLOXYPHENOXY PROPIONATE ACCASE INHIBITOR HERBICIDE” (DOW AGROSCIENCES LLC, priority 2013, published 2014)

Assays:
Assay in all cases: Postemergent herbicidal activity, greenhouse
Assay type in all cases: in vivo
[1] = tested on: AVEFA Avena fatua L. (wild oat)
Procedure: (§1) Evaluation of Postemergent Herbicidal Activity. Seeds or nutlets of the desired test plant species were planted in Sun Gro Metro-Mix® 360 planting mixture, which typically has a pH of 6.0 to 6.8 and an organic matter content of about 30 percent, in plastic pots with a surface area of 64 square centimeters (cm^2). When required to ensure good germination and healthy plants, a fungicide treatment and/or other chemical or physical treatment was applied. The plants were grown for 7-21 days (d) in a greenhouse with an approximate 15 hour (h) photoperiod which was maintained at about 23-29° C. during the day and 22-28° C. during the night. Nutrients and water were added on a regular basis and supplemental lighting was provided with overhead metal halide 1000-Watt lamps as necessary. The plants were employed for testing when they reached the first or second true leaf stage.
(§2) A weighed amount, determined by the highest rate to be tested, of each test compound was placed in a 25 milliliter (mL) glass vial and was dissolved in 4 mL of a 97:3 volume per volume (v/v) mixture of acetone and dimethyl sulfoxide (DMSO) to obtain concentrated stock solutions. […] The concentrated stock solutions obtained were diluted with 20 mL of an aqueous mixture containing acetone, water, isopropyl alcohol, DMSO, Atplus 411F crop oil concentrate, and Triton® X-155 surfactant in a 48.5:39:10:1.5:1.0:0.02 v/v ratio to obtain spray solutions containing the highest application rates. Additional application rates were obtained by serial dilution of 12 mL of the high rate solution into a solution containing 2 mL of a 97:3 v/v mixture of acetone and DMSO and 10 mL of an aqueous mixture containing acetone, water, isopropyl alcohol, DMSO, Atplus 411F crop oil concentrate, and Triton X-155 surfactant in a 48.5:39:10:1.5:1.0:0.02 v/v ratio to obtain ½X, ¼X, ⅛X and 1/16X rates of the high rate. Compound requirements are based upon a 12 mL application volume at a rate of 187 liters per hectare (L/ha). Formulated compounds were applied to the plant material with an overhead Mandel track sprayer equipped with 8002E nozzles calibrated to deliver 187 L/ha over an application area of 0.503 square meters (m^2) at a spray height of 18 inches ([…]) above the average plant canopy height. Control plants were sprayed in the same manner with the solvent blank.
(§3) Treatments consisted of the methyl ester of 4-amino-3-chloro-6-(4-chloro-2-fluoro-3-methoxyphenyl)pyridine-2-carboxylic acid (Cmpd 1) as technical grade material and fluazifop-P-butyl (Fusilade® DX), haloxyfop-P-methyl (GALLANT® super), and quizalofop-P-ethyl (Assure® II) alone and in combination. The form of compound of formula (I) and fluazifop-P-butyl, haloxyfop-P-methyl, and quizalofop-P-ethyl were applied on an acid equivalent basis.
(§4) The treated plants and control plants were placed in a greenhouse as described above and watered by subirrigation to prevent wash-off of the test compounds. After 14 d, the condition of the test plants as compared with that of the untreated plants was determined visually and scored on a scale of 0 to 100 percent where 0 corresponds to no injury and 100 corresponds to complete kill.
(§5) Results of testing mixtures in accordance with this disclosure and of the components of the mixtures separately against various common weeds in greenhouse trials are reported in the following tables. The reported values are of percent (%) control or percent (%) injury, visually rated. Colby's equation was used to determine the herbicidal effects expected from the mixtures (Colby, S. R. Calculation of the synergistic and antagonistic response of herbicide combinations. Weeds 1967, 15, 20-22.).
(§6) More specifically, the following equation was used to calculate the expected activity of mixtures containing two active ingredients, A and B:
(§7) A=observed efficacy of active ingredient A at the same concentration as used in the mixture; B=observed efficacy of active ingredient B at the same concentration as used in the mixture. […]

[2] = tested on: STEME Stellaria media (L.) Vill. (common chickweed)
Procedure: as §1, §2, §3, §4, §5, §6, §7

[3] = tested on: SETFA Setaria faberi Herrm. (giant foxtail)
Procedure: as §1, §2, §3, §4, §5, §6, §7

[4] = tested on: HELAN Helianthus annuus L. (common sunflower)
Procedure: as §1, §2, §3, §4, §5, §6, §7

[5] = tested on: EPHHL Euphorbia heterophylla L. (wild poinsettia)
Procedure: as §1, §2, §3, §4, §5, §6, §7

[6] = tested on: IPOHE Ipomoea hederacea (L.) Jacq. (ivyleaf momingglory)
Procedure: as §1, §2, §3, §4, §5, §6, §7

[7] = tested on: VIOTR Viola tricolor L. (wild violet)
Procedure: as §1, §2, §3, §4, §5, §6, §7

[8] = tested on: CHEAL Chenopodium album L. (common lambsquarters)
Procedure: as §1, §2, §3, §4, §5, §6, §7

[9] = tested on: SORVU Sorghum vulgare (common sorghum)
Procedure: as §1, §2, §3, §4, §5, §6, §7

[10] = tested on: CYPES Cyperus esculentus L. (yellow nutsedge)
Procedure: as §1, §2, §3, §4, §5, §6, §7

[11] = tested on: GLXMA Glycine max (soybean)
Procedure: as §1, §2, §3, §4, §5, §6, §7

[12] = tested on: BRSNW Brassica napus (winter oilseed rape)
Procedure: as §1, §2, §3, §4, §5, §6, §7

[13] = tested on: DIGSA Digitaria sanguinalis (L.) Scop. (large crabgrass)
Procedure: as §1, §2, §3, §4, §5, §6, §7

[14] = tested on: ABUTH Abutilon theophrasti Medik. (velvetleaf)
Procedure: as §1, §2, §3, §4, §5, §6, §7

[15] = tested on: AMARE Amaranthus retroflexus L. (redroot pigweed)
Procedure: as §1, §2, §3, §4, §5, §6, §7

[16] = tested on: CIRAR Cirsium arvense (L.) Scop. (Canada thistle)
Procedure: as §1, §2, §3, §4, §5, §6, §7

`CCCCOC(=O)[C@@H](C)Oc1ccc(Oc2ccc(C(F)(F)F)cn2)cc1` [Fluazifop-P, fluazifop-P-butyl] was tested, and the “Visual Growth Reduction (%) 14 DAA Obs” value ([1]; Fluazifop-P 52.5 g ae/ha) was 0%, the “Visual Growth Reduction (%) 14 DAA Obs” value ([1]; Fluazifop-P 105 g ae/ha) was 0% and the “Visual Growth Reduction (%) 14 DAA Obs” value ([1]; Fluazifop-P 210 g ae/ha) was 70%. The “Visual Growth Reduction (%) 14 DAA Obs” value ([2]; Fluazifop-P 52.5 g ae/ha) was 0%, the “Visual Growth Reduction (%) 14 DAA Obs” value ([2]; Fluazifop-P 105 g ae/ha) was 0% and the “Visual Growth Reduction (%) 14 DAA Obs” value ([2]; Fluazifop-P 210 g ae/ha) was 0%. The “Visual Growth Reduction (%) 14 DAA Obs” value ([3]; Fluazifop-P 52.5 g ae/ha) was 80%, the “Visual Growth Reduction (%) 14 DAA Obs” value ([3]; Fluazifop-P 105 g ae/ha) was 80% and the “Visual Growth Reduction (%) 14 DAA Obs” value ([3]; Fluazifop-P 210 g ae/ha) was 90%. For the same molecule, the “Visual Growth Reduction (%) 14 DAA Obs” value ([4]; Fluazifop-P 52.5 g ae/ha) was 0%, the “Visual Growth Reduction (%) 14 DAA Obs” value ([4]; Fluazifop-P 105 g ae/ha) was 0% and the “Visual Growth Reduction (%) 14 DAA Obs” value ([4]; Fluazifop-P 210 g ae/ha) was 0%. For the same molecule, the “Visual Growth Reduction (%) 14 DAA Obs” value ([5]; Fluazifop-P 52.5 g ae/ha) was 0%, the “Visual Growth Reduction (%) 14 DAA Obs” value ([5]; Fluazifop-P 105 g ae/ha) was 0% and the “Visual Growth Reduction (%) 14 DAA Obs” value ([5]; Fluazifop-P 210 g ae/ha) was 0%. For the same molecule, the “Visual Growth Reduction (%) 14 DAA Obs” value ([6]; Fluazifop-P 52.5 g ae/ha) was 0%, the “Visual Growth Reduction (%) 14 DAA Obs” value ([6]; Fluazifop-P 105 g ae/ha) was 0% and the “Visual Growth Reduction (%) 14 DAA Obs” value ([6]; Fluazifop-P 210 g ae/ha) was 0%. For the same molecule, the “Visual Growth Reduction (%) 14 DAA Obs” value ([7]; Fluazifop-P 52.5 g ae/ha) was 0%, the “Visual Growth Reduction (%) 14 DAA Obs” value ([7]; Fluazifop-P 105 g ae/ha) was 0% and the “Visual Growth Reduction (%) 14 DAA Obs” value ([7]; Fluazifop-P 210 g ae/ha) was 0%. The “Visual Growth Reduction (%) 14 DAA Obs” value ([8]; Fluazifop-P 52.5 g ae/ha) was 0%, the “Visual Growth Reduction (%) 14 DAA Obs” value ([8]; Fluazifop-P 105 g ae/ha) was 0% and the “Visual Growth Reduction (%) 14 DAA Obs” value ([8]; Fluazifop-P 210 g ae/ha) was 0%. For the same molecule, the “Visual Growth Reduction (%) 14 DAA Obs” value ([9]; Fluazifop-P 52.5 g ae/ha) was 70%, the “Visual Growth Reduction (%) 14 DAA Obs” value ([9]; Fluazifop-P 105 g ae/ha) was 90% and the “Visual Growth Reduction (%) 14 DAA Obs” value ([9]; Fluazifop-P 210 g ae/ha) was 100%. For the same molecule, the “Visual Growth Reduction (%) 14 DAA Obs” value ([10]; Fluazifop-P 52.5 g ae/ha) was 0%, the “Visual Growth Reduction (%) 14 DAA Obs” value ([10]; Fluazifop-P 105 g ae/ha) was 0% and the “Visual Growth Reduction (%) 14 DAA Obs” value ([10]; Fluazifop-P 210 g ae/ha) was 0%. For the same molecule, the “Visual Growth Reduction (%) 14 DAA Obs” value ([11]; Fluazifop-P 52.5 g ae/ha) was 0%, the “Visual Growth Reduction (%) 14 DAA Obs” value ([11]; Fluazifop-P 105 g ae/ha) was 0% and the “Visual Growth Reduction (%) 14 DAA Obs” value ([11]; Fluazifop-P 210 g ae/ha) was 0%. For the same molecule, the “Visual Growth Reduction (%) 14 DAA Obs” value ([12]; Fluazifop-P 52.5 g ae/ha) was 0%, the “Visual Growth Reduction (%) 14 DAA Obs” value ([12]; Fluazifop-P 105 g ae/ha) was 0% and the “Visual Growth Reduction (%) 14 DAA Obs” value ([12]; Fluazifop-P 210 g ae/ha) was 0%. The “Visual Growth Reduction (%) 14 DAA Obs” value ([13]; Fluazifop-P 52.5 g ae/ha) was 70%, the “Visual Growth Reduction (%) 14 DAA Obs” value ([13]; Fluazifop-P 105 g ae/ha) was 80% and the “Visual Growth Reduction (%) 14 DAA Obs” value ([13]; Fluazifop-P 210 g ae/ha) was 85%. For the same molecule, the “Visual Growth Reduction (%) 14 DAA Obs” value ([14]; Fluazifop-P 52.5 g ae/ha) was 0%, the “Visual Growth Reduction (%) 14 DAA Obs” value ([14]; Fluazifop-P 105 g ae/ha) was 0% and the “Visual Growth Reduction (%) 14 DAA Obs” value ([14]; Fluazifop-P 210 g ae/ha) was 0%. For the same molecule, the “Visual Growth Reduction (%) 14 DAA Obs” value ([15]; Fluazifop-P 52.5 g ae/ha) was 0%, the “Visual Growth Reduction (%) 14 DAA Obs” value ([15]; Fluazifop-P 105 g ae/ha) was 0% and the “Visual Growth Reduction (%) 14 DAA Obs” value ([15]; Fluazifop-P 210 g ae/ha) was 0%. For the same molecule, the “Visual Growth Reduction (%) 14 DAA Obs” value ([16]; Fluazifop-P 52.5 g ae/ha) was 0%, the “Visual Growth Reduction (%) 14 DAA Obs” value ([16]; Fluazifop-P 105 g ae/ha) was 0% and the “Visual Growth Reduction (%) 14 DAA Obs” value ([16]; Fluazifop-P 210 g ae/ha) was 0%.
